Here are results for 20 compounds from patent US20060194837A1, “Tetrahydroisoquinoline compounds” (priority 2004, published 2006).

Read-outs that look alike come from different tables or passages of the source.

The target of one assay is T1, human H3 receptor (Homo sapiens, UniProt Q9Y5N1).
T1 construct: expressed in transfected cells
As to the kind of experiment: H3 receptor binding (N-[3H]-α-methylhistamine displacement). Particulars: membranes of SK-N-MC cells expressing cloned human H3 receptor, 0.8 nM N-[3H]-α-methylhistamine, 60 min at 25° C.

A further assay has as its target T2, Rat SERT (Rattus norvegicus, UniProt P31652).
T2 construct: A rat brain without cerebellum (Zivic Laboratories, Inc.—Pittsburgh, Pa.) was homogenized; tissue Zivic Laboratories, Inc; host or cells: rat brain without cerebellum, membranes
As to the kind of experiment: Rat brain SERT binding ([3H]-citalopram displacement). The settings on record: rat brain membranes without cerebellum, 0.6 nM [3H]-citalopram, 60 min at 25° C. The protocol:
The supernatant was removed and re-centrifuged at 15,000 rpm for 30 min. […] Membranes were incubated with 0.6 nM [^3H]-Citalopram plus/minus test compounds for 60 min at 25° C. and harvested by rapid filtration over GF/C glass fiber filters (pretreated with 0.3% polyethylenimine) followed by four washes with ice-cold buffer.

The target in another assay is T3, human SERT (Homo sapiens, UniProt P31645).
T3 construct: expressed in transfected cells; host or cells: HEK293 membranes
T3 sequence (P31645 whole entry): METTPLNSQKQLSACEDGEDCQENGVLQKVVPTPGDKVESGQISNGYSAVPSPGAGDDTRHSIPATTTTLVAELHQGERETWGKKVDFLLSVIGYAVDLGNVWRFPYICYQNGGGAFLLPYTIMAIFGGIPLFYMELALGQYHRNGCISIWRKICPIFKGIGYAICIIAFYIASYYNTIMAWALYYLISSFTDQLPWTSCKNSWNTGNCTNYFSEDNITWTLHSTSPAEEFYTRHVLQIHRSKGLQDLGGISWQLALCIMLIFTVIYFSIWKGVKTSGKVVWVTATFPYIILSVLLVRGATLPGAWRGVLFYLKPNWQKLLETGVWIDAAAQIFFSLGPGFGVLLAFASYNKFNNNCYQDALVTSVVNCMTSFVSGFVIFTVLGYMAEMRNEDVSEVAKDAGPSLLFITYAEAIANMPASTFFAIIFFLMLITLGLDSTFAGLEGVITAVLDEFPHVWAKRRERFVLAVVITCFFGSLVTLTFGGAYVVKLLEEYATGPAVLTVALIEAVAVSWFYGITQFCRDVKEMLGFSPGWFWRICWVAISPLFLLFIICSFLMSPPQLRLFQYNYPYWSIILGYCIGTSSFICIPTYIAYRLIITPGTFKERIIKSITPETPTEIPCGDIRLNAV
Kind of assay: Human SERT binding (3H-citalopram displacement). Particulars: HEK293 membranes expressing human SERT, rt 1 h. The method, then:
Homogenized HEK293 (Human Embryonic Kidney) membranes expressing the human SERT were incubated with ^3H-citalopram (SERT) at rt for 1 h in 50 mM Tris, 120 mM NaCl, 5 mM KCl (pH 7.4). […] The membranes were washed and the radioactivity was counted as above.

T2 sequence (P31652 whole entry): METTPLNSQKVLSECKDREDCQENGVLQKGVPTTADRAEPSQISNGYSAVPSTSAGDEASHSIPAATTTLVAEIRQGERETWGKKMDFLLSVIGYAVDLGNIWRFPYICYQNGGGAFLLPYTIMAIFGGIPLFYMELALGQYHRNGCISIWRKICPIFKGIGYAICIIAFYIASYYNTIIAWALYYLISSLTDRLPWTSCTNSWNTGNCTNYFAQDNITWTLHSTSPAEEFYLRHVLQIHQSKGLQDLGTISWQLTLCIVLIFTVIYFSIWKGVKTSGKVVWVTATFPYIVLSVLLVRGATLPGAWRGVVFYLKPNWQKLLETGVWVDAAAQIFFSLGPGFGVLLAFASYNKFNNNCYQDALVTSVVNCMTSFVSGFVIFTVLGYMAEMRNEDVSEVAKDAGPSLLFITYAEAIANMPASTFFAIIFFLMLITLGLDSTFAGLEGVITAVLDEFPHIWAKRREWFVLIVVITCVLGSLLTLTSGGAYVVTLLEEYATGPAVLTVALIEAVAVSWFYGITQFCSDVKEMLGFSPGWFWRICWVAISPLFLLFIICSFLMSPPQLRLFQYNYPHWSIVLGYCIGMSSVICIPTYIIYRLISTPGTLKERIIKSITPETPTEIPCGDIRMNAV
T1 sequence (Q9Y5N1 whole entry): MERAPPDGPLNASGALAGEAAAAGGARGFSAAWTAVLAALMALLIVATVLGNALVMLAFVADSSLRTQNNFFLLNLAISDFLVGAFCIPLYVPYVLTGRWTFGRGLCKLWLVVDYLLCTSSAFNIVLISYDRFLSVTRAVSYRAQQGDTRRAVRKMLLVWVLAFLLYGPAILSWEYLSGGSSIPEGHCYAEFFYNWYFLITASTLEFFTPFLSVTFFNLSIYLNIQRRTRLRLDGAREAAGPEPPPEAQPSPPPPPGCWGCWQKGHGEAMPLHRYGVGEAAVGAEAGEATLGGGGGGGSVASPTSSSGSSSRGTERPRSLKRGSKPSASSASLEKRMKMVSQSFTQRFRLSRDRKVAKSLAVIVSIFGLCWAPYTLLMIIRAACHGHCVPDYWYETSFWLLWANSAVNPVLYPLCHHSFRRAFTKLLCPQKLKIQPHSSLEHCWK

By Ki is commonly meant a measure of affinity in units of concentration, obtained from inhibition or displacement. As to `COc1ccc(C2CN(C)Cc3cc(OCCCN4CCC(F)(F)C4)ccc32)cc1` (stereo not drawn) [Example 129, 7-[3-(3,3-Difluoro-pyrrolidin-1-yl)-propoxy]-4-(4-methoxy-phenyl)-2-methyl-1,2,3,4-tetrahydro-isoquinoline], the Ki on human H3 receptor is 14 nM; on Rat SERT (read-out: Rat SERT Ki), 7 nM; on human SERT, 5 nM.

As to `CSc1ccc(C2CN(C)Cc3cc(OCC4CCN(C5CCC5)CC4)ccc32)cc1` (stereo not drawn) [Example 104, 7-(1-Cyclobutyl-piperidin-4-ylmethoxy)-2-methyl-4-(4-methylsulfanyl-phenyl)-1,2,3,4-tetrahydro-isoquinoline], the figures for the Ki at human H3 receptor, on Rat SERT (read-out: Rat SERT Ki) and at human SERT were 11 nM, 5 nM and 3 nM, respectively.

As to `COc1ccc(C2CN(C)Cc3cc(OCCCN4CCN(C(=O)c5cn(C)cn5)CC4)ccc32)cc1` (stereo not drawn) [Example 14, (4-{3-[4-(4-Methoxy-phenyl)-2-methyl-1,2,3,4-tetrahydro-isoquinolin-7-yloxy]-propyl}-piperazin-1-yl)-(1-methyl-1H-imidazol-4-yl)-methanone], the Ki is 2000 nM on human H3 receptor, 19 nM at Rat SERT (read-out: Rat SERT Ki) and 18 nM on human SERT.

In the case of `COc1ccc(C2CN(C)Cc3cc(OCCCN4CCCC(F)C4)ccc32)cc1` (stereo not drawn) [Example 39, 7-[3-(3-Fluoro-piperidin-1-yl)-propoxy]-4-(4-methoxy-phenyl)-2-methyl-1,2,3,4-tetrahydro-isoquinoline], the Ki on human H3 receptor, at Rat SERT (read-out: Rat SERT Ki) and at human SERT was 3 nM in each case.

As for `COc1ccc(C2CN(C)Cc3cc(OCCCN4CCC(CO)CC4)ccc32)cc1` (stereo not drawn) [Example 22, (1-{3-[4-(4-Methoxy-phenyl)-2-methyl-1,2,3,4-tetrahydro-isoquinolin-7-yloxy]-propyl}-piperidin-4-yl)-methanol], the Ki on human H3 receptor was 11 nM; on Rat SERT (read-out: Rat SERT Ki), 3 nM; at human SERT, 5 nM.

On to `C[C@H]1COCCN1CCCOc1ccc2c(c1)CN(C)CC2c1ccc(C#N)cc1` (stereo partly drawn) [Example 135, 4-{2-Methyl-7-[3-(3S-methyl-morpholin-4-yl)-propoxy]-1,2,3,4-tetrahydro-isoquinolin-4-yl}-benzonitrile], for which the Ki is 2 nM on human H3 receptor, 27 nM at Rat SERT (read-out: Rat SERT Ki) and 15 nM at human SERT.

For `COc1ccc(C2CN(C)Cc3cc(OC4CCN(C5CCOCC5)CC4)ccc32)cc1` (stereo not drawn) [Example 121, 4-(4-Methoxy-phenyl)-2-methyl-7-[1-(tetrahydro-pyran-4-yl)-piperidin-4-yloxy]-1,2,3,4-tetrahydro-isoquinoline], the Ki on human H3 receptor is 2 nM; on Rat SERT (read-out: Rat SERT Ki), 10 nM; at human SERT, 6 nM.

As to `CSc1ccc(C2CN(C)Cc3cc(OC4CCN(C(C)C)CC4)ccc32)cc1` (stereo not drawn) [Example 118, 7-(1-Isopropyl-piperidin-4-yloxy)-2-methyl-4-(4-methylsulfanyl-phenyl)-1,2,3,4-tetrahydro-isoquinoline], the values for the Ki at human H3 receptor, on Rat SERT (read-out: Rat SERT Ki) and at human SERT were 1 nM, 8 nM and 4 nM, respectively.

Regarding `COc1ccc(C2CN(C(C)C)Cc3cc(OCCCN4CCCCC4)ccc32)cc1` (stereo not drawn) [Example 68, 2-Isopropyl-4-(4-methoxy-phenyl)-7-(3-piperidin-1-yl-propoxy)-1,2,3,4-tetrahydro-isoquinoline], the Ki at human H3 receptor was 1 nM; at Rat SERT (read-out: Rat SERT Ki), 22 nM; at human SERT, 89 nM.

For the compound `COc1ccc(C2CN(C)Cc3cc(OCCCN4CCCC(CO)C4)ccc32)cc1` (stereo not drawn) [Example 23, (1-{3-[4-(4-Methoxy-phenyl)-2-methyl-1,2,3,4-tetrahydro-isoquinolin-7-yloxy]-propyl}-piperidin-3-yl)-methanol], the Ki came to 2 nM at human H3 receptor, 2 nM on Rat SERT (read-out: Rat SERT Ki) and 4 nM at human SERT.

`COc1ccc(C2CN(C)Cc3cc(OCCCN4CCN(C(=O)C5CC5)CC4)ccc32)cc1` (stereo not drawn) [Example 7, Cyclopropyl-(4-{3-[4-(4-methoxy-phenyl)-2-methyl-1,2,3,4-tetrahydro-isoquinolin-7-yloxy]-propyl}-piperazin-1-yl)-methanone]: the Ki at human H3 receptor came to 315 nM; at Rat SERT (read-out: Rat SERT Ki), 14 nM; at human SERT, 14 nM.

In the case of `CCCN1CCC(COc2ccc3c(c2)CN(C)CC3c2ccc(SC)cc2)CC1` (stereo not drawn) [Example 109, 2-Methyl-4-(4-methylsulfanyl-phenyl)-7-(1-propyl-piperidin-4-ylmethoxy)-1,2,3,4-tetrahydro-isoquinoline], the Ki is 8 nM on human H3 receptor, 10 nM on Rat SERT (read-out: Rat SERT Ki) and 3 nM at human SERT.

Regarding `COc1ccc(C2CN(C)Cc3cc(OCCCN4CCN(C(=O)C(C)C)CC4)ccc32)cc1` (stereo not drawn) [Example 5, 1-(4-{3-[4-(4-Methoxy-phenyl)-2-methyl-1,2,3,4-tetrahydro-isoquinolin-7-yloxy]-propyl}-piperazin-1-yl)-2-methyl-propan-1-one], the Ki at human H3 receptor worked out at 594 nM; on Rat SERT (read-out: Rat SERT Ki) it was 27 nM; at human SERT, 18 nM.

`COc1ccc(C2CN(C)Cc3cc(OCCCN4CCOC[C@@H]4C)ccc32)c(F)c1` (stereo partly drawn) [Example 220, 4-(2-Fluoro-4-methoxy-phenyl)-2-methyl-7-[3-(3S-methyl-morpholin-4-yl)-propoxy]-1,2,3,4-tetrahydro-isoquinoline]: the Ki is 6 nM at human H3 receptor, 4 nM at Rat SERT (read-out: Rat SERT Ki) and 12 nM on human SERT.

For `COc1ccc(C2CN(C)Cc3cc(OCC4CCN(CCF)CC4)ccc32)cc1` (stereo not drawn) [Example 116, 7-[1-(2-Fluoro-ethyl)-piperidin-4-ylmethoxy]-4-(4-methoxy-phenyl)-2-methyl-1,2,3,4-tetrahydro-isoquinoline], the figures for the Ki on human H3 receptor, on Rat SERT (read-out: Rat SERT Ki) and on human SERT were 8 nM, 6 nM and 7 nM, respectively.

`COc1cccc(C2CN(C)Cc3cc(OCC4CCN(C)CC4)ccc32)c1` (stereo not drawn) [Example 92, 4-(3-Methoxy-phenyl)-2-methyl-7-(1-methyl-piperidin-4-ylmethoxy)-1,2,3,4-tetrahydro-isoquinoline]: the Ki on human H3 receptor came to 2 nM; on Rat SERT (read-out: Rat SERT Ki) it was 12 nM; at human SERT it was 9 nM.

As for `CCCN1CCC(COc2ccc3c(c2)CN(C)CC3c2ccc(OC)c(F)c2)CC1` (stereo not drawn) [Example 112, 4-(3-Fluoro-4-methoxy-phenyl)-2-methyl-7-(1-propyl-piperidin-4-ylmethoxy)-1,2,3,4-tetrahydro-isoquinoline], the Ki on human H3 receptor came out at 9 nM; at Rat SERT (read-out: Rat SERT Ki) it was 5 nM; at human SERT, 6 nM.

For the compound `CN1Cc2cc(OCCCN3CCC(F)CC3)ccc2C(c2cccc(Cl)c2)C1` (stereo not drawn) [Example 46, 4-(3-Chloro-phenyl)-7-[3-(4-fluoro-piperidin-1-yl)-propoxy]-2-methyl-1,2,3,4-tetrahydro-isoquinoline], the Ki was 3 nM at human H3 receptor, 14 nM at Rat SERT (read-out: Rat SERT Ki) and 26 nM at human SERT.

For the compound `COc1ccc(C2CN(C)Cc3cc(OCCCN4CCCC4C)ccc32)cc1` (stereo not drawn) [Example 35, 4-(4-Methoxy-phenyl)-2-methyl-7-[3-(2-methyl-pyrrolidin-1-yl)-propoxy]-1,2,3,4-tetrahydro-isoquinoline], the results for the Ki on human H3 receptor, on Rat SERT (Rat SERT Ki (nM)) and at human SERT were 1 nM, 2 nM and 3 nM, respectively.

As for `COc1ccc(C2CN(C)Cc3cc(OCCCN4CCN(C(C)=O)CC4)ccc32)cc1` (stereo not drawn) [Example 2, 1-(4-{3-[4-(4-Methoxy-phenyl)-2-methyl-1,2,3,4-tetrahydro-isoquinolin-7-yloxy]-propyl}-piperazin-1-yl)-ethanone], the Ki on human H3 receptor is 70 nM; on Rat SERT (read-out: Rat SERT Ki) it was 13 nM; at human SERT it was 56 nM.
